Measured values as given in patent publication US9187484B2 (Southern Research Institute, priority 2012, dated 2015).

Tests used:
LRRK2 (G2019S) = target: T1, LRRK2 (G2019S) (Homo sapiens, UniProt Q5S007, G2019S); experiment: LRRK2 inhibition, radiometric kinase assay with recombinant GST-LRRK2 (delta970) and peptide substrate; type: biochemical; conditions: GST-LRRK2 (delta970) G2019S 30 nM, ATP ~52 μM (Km), 30 min at 30° C.
T1 construct: Recombinant GST-LRRK2 (delta970), purified from baculovirus infected insect cells (SF9); GST (N); host or cells: baculovirus infected insect cells (SF9)
T1 sequence (Q5S007 970-2527 G2019S limits assumed): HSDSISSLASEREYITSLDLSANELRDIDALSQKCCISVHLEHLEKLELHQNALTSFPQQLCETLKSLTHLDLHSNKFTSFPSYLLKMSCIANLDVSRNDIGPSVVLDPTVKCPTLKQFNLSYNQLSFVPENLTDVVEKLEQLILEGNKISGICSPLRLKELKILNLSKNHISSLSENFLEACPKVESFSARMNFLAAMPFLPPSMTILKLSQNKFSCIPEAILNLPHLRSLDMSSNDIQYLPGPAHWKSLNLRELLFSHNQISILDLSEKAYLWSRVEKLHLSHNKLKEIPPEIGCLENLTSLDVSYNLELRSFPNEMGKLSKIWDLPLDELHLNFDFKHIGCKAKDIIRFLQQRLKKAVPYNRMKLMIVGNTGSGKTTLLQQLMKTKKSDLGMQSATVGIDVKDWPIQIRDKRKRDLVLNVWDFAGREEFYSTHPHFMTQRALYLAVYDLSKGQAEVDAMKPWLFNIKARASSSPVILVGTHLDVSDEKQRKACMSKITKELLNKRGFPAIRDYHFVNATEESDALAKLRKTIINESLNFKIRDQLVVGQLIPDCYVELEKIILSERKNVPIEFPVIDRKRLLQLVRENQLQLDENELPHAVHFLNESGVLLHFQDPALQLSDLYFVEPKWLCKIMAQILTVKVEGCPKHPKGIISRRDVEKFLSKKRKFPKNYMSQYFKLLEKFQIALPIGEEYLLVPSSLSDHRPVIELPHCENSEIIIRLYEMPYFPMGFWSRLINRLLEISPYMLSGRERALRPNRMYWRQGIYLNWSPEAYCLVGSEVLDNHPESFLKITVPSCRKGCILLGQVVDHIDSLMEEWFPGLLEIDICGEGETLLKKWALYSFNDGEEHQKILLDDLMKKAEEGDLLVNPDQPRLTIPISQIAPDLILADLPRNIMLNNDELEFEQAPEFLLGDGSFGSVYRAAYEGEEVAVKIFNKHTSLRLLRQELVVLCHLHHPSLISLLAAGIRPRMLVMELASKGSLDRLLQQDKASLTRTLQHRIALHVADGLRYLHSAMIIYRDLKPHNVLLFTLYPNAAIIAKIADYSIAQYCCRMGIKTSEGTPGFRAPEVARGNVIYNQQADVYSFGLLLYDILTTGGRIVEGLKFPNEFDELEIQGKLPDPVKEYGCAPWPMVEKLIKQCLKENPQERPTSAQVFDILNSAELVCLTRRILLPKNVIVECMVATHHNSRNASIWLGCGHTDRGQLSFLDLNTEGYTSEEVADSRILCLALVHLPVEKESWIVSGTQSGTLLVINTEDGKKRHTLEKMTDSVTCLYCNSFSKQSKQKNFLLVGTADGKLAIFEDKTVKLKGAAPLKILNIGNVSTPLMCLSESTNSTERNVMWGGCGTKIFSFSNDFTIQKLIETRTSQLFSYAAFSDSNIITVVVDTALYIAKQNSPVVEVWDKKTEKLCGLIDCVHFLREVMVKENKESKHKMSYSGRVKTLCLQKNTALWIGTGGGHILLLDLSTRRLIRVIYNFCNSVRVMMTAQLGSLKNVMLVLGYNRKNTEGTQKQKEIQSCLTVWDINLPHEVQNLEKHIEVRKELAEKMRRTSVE
How it was run: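 Recombinant GST-LRRK2 (delta970) from SF9 cells, wild-type or G2019S, at 30 nM in 50 mM Tris HCl pH 7.4, 1 mM EDTA with 50 μM peptide substrate and 0.1% DMSO. ATP at Km (˜92 μM WT, ˜52 μM G2019S) with 10 mM MgCl2 and gamma-32-P label; 30 min at 30° C. Phosphocellulose capture, scintillation counting.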

WT-LRRK2 or G2019S-LRRK2 = experiment: Inhibition of LRRK2 phosphorylation (pS935 antibody) in lysates of transfected HEK-293T cells; type: cell-based; conditions: HEK-293T cells transiently transfected with either WT-LRRK2 or G2019S-LRRK2
Source text: To test whether Example 90 and Example 34 can inhibit LRRK2 phosphorylation, an antibody commercially available from Epitomics directed against the serine residue number 935 on LRRK2 from lysates generated from HEK-293T cells transiently transfected with either WT-LRRK2 or G2019S-LRRK2 protein.

G2019S-LRRK2 = experiment: LPS-induced TNF-alpha in primary macrophages over-expressing G2019S-LRRK2; type: cell-based, mice; conditions: 5 μM 1 hour prior to LPS stimulation (100 ng/ml), TNF-alpha measured 6 hours later
Source text: Recently, high levels of LRRK2 expression in primary microglia that are the immune cells of the nervous system have been discovered (Moehle et al., J. Neuroscience (2012), PMID 22302802). […] More recently, LRRK2 has also been detected in primary macrophages, specifically macrophages isolated after thioglycolate exposures in mice. To assess whether Example 90 can inhibit the G2019S-LRRK2 induced increase in TNF-alpha to wild-type levels of TNF-alpha induction by LPS, primary macrophages were exposed in culture to 5 μM 1 hour prior to LPS stimulation (100 ng/ml), and TNF-alpha levels were measured 6 hours later.

CC(Sc1ccc2nnc(-c3cccs3)n2n1)C(=O)N1CCCCC1 (stereo not drawn) [Example 90, 1-(piperidin-1-yl)-2-((3-(thiophen-2-yl)-[1,2,4]triazolo[4,3-b]pyridazin-6-yl)thio)propan-1-one]
IC50 (LRRK2 (G2019S)): < 100 nM | levels of pS935 on LRRK2 (WT-LRRK2 or G2019S-LRRK2): partially inhibited | TNF-alpha levels (G2019S-LRRK2 induced increase) (G2019S-LRRK2): successfully returned G2019S-LRRK2 over-expressing cells back to WT levels
